Test results from ChEMBL document CHEMBL5528044, “Exploring the Function of (+)-Naltrexone Precursors: Their Activity as TLR4 Antagonists and Potential in Treating Morphine Addiction” (J Med Chem, 2024).
Calls of active or inactive are those of the source. The rule behind the calls is not given here.

Columns and labels:
[1] = Clearance in Balb/c mouse at 2 mg/kg,iv administration and measured upto 24 hrs by LC-MS/MS analysis; type: ADME, organism-based; conditions: in vivo
Mus musculus [2] = experiment: Inhibition of morphine-induced addiction behavior in Balb/c mouse assessed reduction in CPP score at 0.2 mg/kg,ip administrated for 6 consecutive days by conditioned place preference assay; type: functional, organism-based
[3] = target: T1, Toll-like receptor 4 (Mus musculus) (UniProt Q9QUK6); experiment: Antagonist activity at TLR4 in mouse BV-2 cells assessed as inhibition of LPS-induced NF-kappaB activation at 4 uM incubated for 24 hrs by dual-glo luciferase assay; type: cell-based; conditions: filed as antagonist
T1 sequence (whole entry): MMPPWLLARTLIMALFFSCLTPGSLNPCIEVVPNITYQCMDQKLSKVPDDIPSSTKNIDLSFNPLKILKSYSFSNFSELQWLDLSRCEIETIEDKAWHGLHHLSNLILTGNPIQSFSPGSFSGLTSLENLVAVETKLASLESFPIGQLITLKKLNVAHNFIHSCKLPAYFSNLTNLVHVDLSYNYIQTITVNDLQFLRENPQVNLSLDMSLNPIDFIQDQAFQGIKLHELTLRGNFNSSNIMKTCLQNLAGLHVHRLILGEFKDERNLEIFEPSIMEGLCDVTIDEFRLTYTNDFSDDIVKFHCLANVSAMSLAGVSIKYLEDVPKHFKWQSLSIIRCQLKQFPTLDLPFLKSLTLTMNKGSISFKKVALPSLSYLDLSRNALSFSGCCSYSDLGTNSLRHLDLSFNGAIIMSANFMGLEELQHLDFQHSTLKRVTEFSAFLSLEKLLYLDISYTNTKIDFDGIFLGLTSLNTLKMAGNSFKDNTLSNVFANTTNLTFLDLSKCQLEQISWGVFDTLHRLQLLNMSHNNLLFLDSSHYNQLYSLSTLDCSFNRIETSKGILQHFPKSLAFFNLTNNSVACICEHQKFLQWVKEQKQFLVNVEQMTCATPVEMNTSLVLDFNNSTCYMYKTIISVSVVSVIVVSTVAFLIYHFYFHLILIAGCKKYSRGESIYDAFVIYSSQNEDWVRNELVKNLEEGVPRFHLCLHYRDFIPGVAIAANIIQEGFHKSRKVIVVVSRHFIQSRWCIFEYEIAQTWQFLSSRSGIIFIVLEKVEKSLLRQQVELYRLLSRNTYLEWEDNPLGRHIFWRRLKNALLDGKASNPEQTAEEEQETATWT

Mus musculus [4] = experiment: Inhibition of chronic morphine-induced microglia activation in Balb/c mouse assessed as reduction in microglia cell number in brain medial prefrontal cortex region at 0.2 mg/kg,ip administrated for 6 consecutive days by immunofluorescence staining based analysis; type: functional, organism-based
Mus musculus [5] = experiment: Inhibition of morphine-induced addiction behavior in Balb/c mouse assessed as decrease in total distance traveled in field at 0.005 to 0.2 mg/kg,ip administrated on day 4 to 10 by open-field test; type: functional, organism-based; conditions: dose 0.005-0.2 mg/kg, time 7.0 day
[6] = Half life in Balb/c mouse at 2 mg/kg,iv administration and measured upto 24 hrs by LC-MS/MS analysis; type: ADME, organism-based; conditions: in vivo
[7] = Oral bioavailability in Balb/c mouse at 20 mg/kg administration and measured upto 24 hrs by LC-MS/MS analysis; type: ADME, organism-based; conditions: in vivo
[8] = target: T1, Toll-like receptor 4 (Mus musculus); experiment: Antagonist activity at TLR4 signaling pathway in mouse BV-2 cells assessed as downregulation of LPS-induced JNK phosphorylation at 5 uM incubated for 1 hr by Western blot analysis; type: cell-based; conditions: filed as antagonist
[9] = Toxicity in morphine-induced Balb/c mouse assessed body weight loss at 0.2 mg/kg,ip administrated for 1 week and measured on day 15; type: organism-based; conditions: in vivo, 360 h, time 15 day
[10] = target: T1, Toll-like receptor 4 (Mus musculus); experiment: Antagonist activity at TLR4 signaling pathway in mouse BV-2 cells assessed as downregulation of LPS-induced ERK phosphorylation at 5 uM incubated for 1 hr by Western blot analysis; type: cell-based; conditions: filed as antagonist
[11] = target: T1, Toll-like receptor 4 (Mus musculus); experiment: Antagonist activity at TLR4 signaling pathway in mouse BV-2 cells assessed as downregulation of LPS-induced IRF-3 phosphorylation at 5 uM incubated for 1 hr by Western blot analysis; type: cell-based; conditions: filed as antagonist
Mus musculus [12] = experiment: Inhibition of morphine-induced addiction behavior in Balb/c mouse assessed as decrease in locomotor activity at 0.005 to 0.2 mg/kg,ip administrated on day 4 to 10 by open-field test; type: functional, organism-based; conditions: dose 0.005-0.2 mg/kg, time 7.0 day

| Structure (SMILES) | clearance [1] [mL/min/kg] | inhibition (Mus musculus [2]) | Activity [3] | inhibition (Mus musculus [4]) | inhibition (Mus musculus [5]) | half-life [6] [h] | bioavailability [7] [%] | Activity [8] | Activity [9] | Activity [10] | Activity [11] | inhibition (Mus musculus [12]) |
| --- | --- | --- | --- | --- | --- | --- | --- | --- | --- | --- | --- | --- |
| CN1CC[C@@]23c4c5ccc(O)c4O[C@@H]2C(=O)C=C[C@]3(O)[C@@H]1C5 (single isomer, unassigned) | 469 | Active | Active | Active | inactive | 2.2 | 41.1 | Active | Non-Toxic | Active | Active | Dose-Dependent Effect |
| COc1ccc2c3c1O[C@@H]1C(=O)C=C[C@]4(O)[C@H](C2)N(C)CC[C@@]314 (single isomer, unassigned) |  | Active | Active | Active | inactive | 0.6 | 54.3 | Active | Non-Toxic | Active | Active | Dose-Dependent Effect |
